Results as given in PubChem BioAssay AID1259407 (Chemical Carcinogenesis Research Information System (CCRIS), 2018).
Active and inactive are the calls of the source. No rule for the calls is given here.

Tested on: CCRIS mutagenicity, Ames/micronucleus/aberration tests
Experiment: CCRIS mutagenicity studies
[1] = Test System: AMES SALMONELLA TYPHIMURIUM, Strain/Indicator: TA98, Metabolic Activation: NONE, Method: STANDARD PLATE
[2] = Test System: AMES SALMONELLA TYPHIMURIUM, Strain/Indicator: TA100, Metabolic Activation: NONE, Method: STANDARD PLATE
[3] = Test System: AMES SALMONELLA TYPHIMURIUM, Strain/Indicator: TA98, Metabolic Activation: NONE, Method: PREINCUBATION
[4] = Test System: AMES SALMONELLA TYPHIMURIUM, Strain/Indicator: TA98, Metabolic Activation: RAT, LIVER, S-9, AROCLOR 1254, Method: PREINCUBATION
[5] = Test System: AMES SALMONELLA TYPHIMURIUM, Strain/Indicator: TA100, Metabolic Activation: NONE, Method: PREINCUBATION
[6] = Test System: AMES SALMONELLA TYPHIMURIUM, Strain/Indicator: TA100, Metabolic Activation: RAT, LIVER, S-9, AROCLOR 1254, Method: PREINCUBATION
[7] = Test System: AMES SALMONELLA TYPHIMURIUM, Strain/Indicator: TA98, Metabolic Activation: RAT, LIVER, S-9, AROCLOR 1254, Method: STANDARD PLATE
[8] = Test System: AMES SALMONELLA TYPHIMURIUM, Strain/Indicator: TA100, Metabolic Activation: RAT, LIVER, S-9, AROCLOR 1254, Method: STANDARD PLATE
[9] = Test System: AMES SALMONELLA TYPHIMURIUM, Strain/Indicator: TA1537, Metabolic Activation: NONE, Method: STANDARD PLATE

Oc1ccc(Oc2c(Cl)cc(Cl)cc2Cl)cc1
mutagenic call (Test System: AMES SALMONELLA TYPHIMURIUM, Strain/Indicator: TA98, Metabolic Activation: S-9, Method: STANDARD PLATE): inactive; negative | mutagenic call (Test System: AMES SALMONELLA TYPHIMURIUM, Strain/Indicator: TA100, Metabolic Activation: S-9, Method: STANDARD PLATE): inactive; negative | mutagenic call (Test System: AMES SALMONELLA TYPHIMURIUM, Strain/Indicator: YG1021, Metabolic Activation: S-9, Method: STANDARD PLATE): inactive; negative | mutagenic call (Test System: AMES SALMONELLA TYPHIMURIUM, Strain/Indicator: YG1024, Metabolic Activation: S-9, Method: STANDARD PLATE): inactive; negative | mutagenic call (Test System: AMES SALMONELLA TYPHIMURIUM, Strain/Indicator: YG1026, Metabolic Activation: S-9, Method: STANDARD PLATE): inactive; negative | mutagenic call (Test System: AMES SALMONELLA TYPHIMURIUM, Strain/Indicator: YG1029, Metabolic Activation: S-9, Method: STANDARD PLATE): inactive; negative

COC1=CC(=O)c2c(ncc3c2[nH]c2ccccc23)C1=O
mutagenic call (Test System: AMES SALMONELLA TYPHIMURIUM, Strain/Indicator: TA97A, Metabolic Activation: NONE, Method: STANDARD PLATE): active; positive | mutagenic call (Test System: AMES SALMONELLA TYPHIMURIUM, Strain/Indicator: TA97A, Metabolic Activation: RAT LIVER S-9, AROCLOR 1254, Method: STANDARD PLATE): active; positive | mutagenic call [1]: active; positive | mutagenic call (Test System: AMES SALMONELLA TYPHIMURIUM, Strain/Indicator: TA98, Metabolic Activation: RAT LIVER S-9, AROCLOR 1254, Method: STANDARD PLATE): active; positive | mutagenic call [2]: active; positive | mutagenic call (Test System: AMES SALMONELLA TYPHIMURIUM, Strain/Indicator: TA100, Metabolic Activation: RAT LIVER S-9, AROCLOR 1254, Method: STANDARD PLATE): active; positive | mutagenic call (Test System: AMES SALMONELLA TYPHIMURIUM, Strain/Indicator: TA102, Metabolic Activation: NONE, Method: STANDARD PLATE): active; positive | mutagenic call (Test System: AMES SALMONELLA TYPHIMURIUM, Strain/Indicator: TA102, Metabolic Activation: RAT LIVER S-9, AROCLOR 1254, Method: STANDARD PLATE): active; positive

CCOC(=O)c1cc2cc3c4c(c2oc1=O)CCCN4CCC3
mutagenic call (Test System: AMES SALMONELLA TYPHIMURIUM, Strain/Indicator: TA1538, Metabolic Activation: NONE, Method: STANDARD PLATE): inactive; negative | mutagenic call (Test System: AMES SALMONELLA TYPHIMURIUM, Strain/Indicator: TA1538, Metabolic Activation: RAT, LIVER, S-9, AROCLOR 1254, Method: STANDARD PLATE): inactive; negative

CCC[CH2][Sn]([CH2]CCC)([CH2]CCC)[CH2]CCC
mutagenic call (Test System: AMES SALMONELLA TYPHIMURIUM, Strain/Indicator: TA98, Metabolic Activation: NONE, Method: SUSPENSION/PLATE): inactive; negative | mutagenic call (Test System: AMES SALMONELLA TYPHIMURIUM, Strain/Indicator: TA100, Metabolic Activation: NONE, Method: SUSPENSION/PLATE): inactive; negative

[Cl][Pt-2]([Cl])([Cl])[Cl]
mutagenic call [3]: active; positive | mutagenic call [4]: active; positive | mutagenic call [5]: active; positive | mutagenic call [6]: active; positive

COC(=O)C12OC1(C)C(C)(O)OC2=O (configuration not stated)
mutagenic call (Test System: AMES SALMONELLA TYPHIMURIUM, Strain/Indicator: TA98, Metabolic Activation: NONE, Method: DISK ASSAY): inactive; negative | mutagenic call [1]: inactive; negative | mutagenic call (Test System: AMES SALMONELLA TYPHIMURIUM, Strain/Indicator: TA98, Metabolic Activation: RAT, LIVER, S-9, AROCLOR 1254, Method: DISK ASSAY): inactive; negative | mutagenic call [7]: active; positive | mutagenic call [2]: inactive; negative | mutagenic call [8]: inactive; negative

O=C(Nc1cccc2c(=O)c3c(ccc4c5cc(NC(=O)c6ccccc6)c6c(=O)c7ccccc7c(=O)c6c5[nH]c43)c(=O)c12)c1ccccc1
mutagenic call (Test System: AMES SALMONELLA TYPHIMURIUM, Strain/Indicator: TA98, Metabolic Activation: HAMSTER, LIVER, S-9, AROCLOR 1254 (10%), Method: PREINCUBATION): inactive; negative | mutagenic call [3]: inactive; negative | mutagenic call (Test System: AMES SALMONELLA TYPHIMURIUM, Strain/Indicator: TA98, Metabolic Activation: RAT, LIVER, S-9, AROCLOR 1254 (10%), Method: PREINCUBATION): inactive; negative | mutagenic call (Test System: AMES SALMONELLA TYPHIMURIUM, Strain/Indicator: TA100, Metabolic Activation: HAMSTER, LIVER, S-9, AROCLOR 1254 (10%), Method: PREINCUBATION): inactive; negative | mutagenic call [5]: inactive; negative | mutagenic call (Test System: AMES SALMONELLA TYPHIMURIUM, Strain/Indicator: TA100, Metabolic Activation: RAT, LIVER, S-9, AROCLOR 1254 (10%), Method: PREINCUBATION): inactive; negative | mutagenic call (Test System: AMES SALMONELLA TYPHIMURIUM, Strain/Indicator: TA1535, Metabolic Activation: HAMSTER, LIVER, S-9, AROCLOR 1254 (10%), Method: PREINCUBATION): inactive; negative | mutagenic call (Test System: AMES SALMONELLA TYPHIMURIUM, Strain/Indicator: TA1535, Metabolic Activation: NONE, Method: PREINCUBATION): inactive; negative | mutagenic call (Test System: AMES SALMONELLA TYPHIMURIUM, Strain/Indicator: TA1535, Metabolic Activation: RAT, LIVER, S-9, AROCLOR 1254 (10%), Method: PREINCUBATION): inactive; negative | mutagenic call (Test System: AMES SALMONELLA TYPHIMURIUM, Strain/Indicator: TA1537, Metabolic Activation: HAMSTER, LIVER, S-9, AROCLOR 1254 (10%), Method: PREINCUBATION): inactive; negative | mutagenic call (Test System: AMES SALMONELLA TYPHIMURIUM, Strain/Indicator: TA1537, Metabolic Activation: NONE, Method: PREINCUBATION): inactive; negative | mutagenic call (Test System: AMES SALMONELLA TYPHIMURIUM, Strain/Indicator: TA1537, Metabolic Activation: RAT, LIVER, S-9, AROCLOR 1254 (10%), Method: PREINCUBATION): inactive; negative | mutagenic call (Test System: Ames Salmonella typhimurium, Strain/Indicator: TA98, Metabolic Activation: None, Method: Preincubation): active; positive | mutagenic call (Test System: Ames Salmonella typhimurium, Strain/Indicator: TA100, Metabolic Activation: None, Method: Preincubation): inactive; negative | mutagenic call (Test System: Ames Salmonella typhimurium, Strain/Indicator: TA102, Metabolic Activation: None, Method: Preincubation): inactive; negative | mutagenic call (Test System: Ames Salmonella typhimurium, Strain/Indicator: TA1535, Metabolic Activation: None, Method: Preincubation): inactive; negative

O[C@H]1c2ccccc2-c2cc3ccc4ccccc4c3cc2[C@@H]1O
mutagenic call [8]: active; positive

O=S(=O)(O)C1C(O)c2c(cc3ccc4cccc5ccc2c3c45)C(O)C1O (configuration not stated)
mutagenic call [3]: inactive; negative

Nc1cc2cccc3ccc4cccc1c4c32
mutagenic call (Test System: AMES SALMONELLA TYPHIMURIUM, Strain/Indicator: TA98, Metabolic Activation: RAT, LIVER, S-9, AROCLOR 1254 (2 OR 4%), Method: STANDARD PLATE): active; positive | mutagenic call (Test System: AMES SALMONELLA TYPHIMURIUM, Strain/Indicator: TA100, Metabolic Activation: RAT, LIVER, S-9, AROCLOR 1254 (2%), Method: STANDARD PLATE): active; positive | mutagenic call (Test System: AMES SALMONELLA TYPHIMURIUM, Strain/Indicator: TA1535, Metabolic Activation: RAT, LIVER, S-9, AROCLOR 1254 (2%), Method: STANDARD PLATE): inactive; negative | mutagenic call (Test System: AMES SALMONELLA TYPHIMURIUM, Strain/Indicator: TA1537, Metabolic Activation: RAT, LIVER, S-9, AROCLOR 1254 (2%), Method: STANDARD PLATE): active; positive

CN(C)CCNC(=O)c1cccc2nc3ccccc3nc12
mutagenic call [9]: active; positive

Cc1cc(C(=O)NNCc2ccccc2)no1
mutagenic call [1]: inactive; negative | mutagenic call [7]: inactive; negative | mutagenic call [2]: inactive; negative | mutagenic call [8]: inactive; negative | mutagenic call (Test System: AMES SALMONELLA TYPHIMURIUM, Strain/Indicator: TA1535, Metabolic Activation: NONE, Method: STANDARD PLATE): inactive; negative | mutagenic call (Test System: AMES SALMONELLA TYPHIMURIUM, Strain/Indicator: TA1535, Metabolic Activation: RAT, LIVER, S-9, AROCLOR 1254, Method: STANDARD PLATE): inactive; negative | mutagenic call [9]: inactive; negative | mutagenic call (Test System: AMES SALMONELLA TYPHIMURIUM, Strain/Indicator: TA1537, Metabolic Activation: RAT, LIVER, S-9, AROCLOR 1254, Method: STANDARD PLATE): inactive; negative

Cc1cc2c(nc1N)[nH]c1ccccc12
mutagenic call [4]: active; positive | mutagenic call [6]: active; positive | mutagenic call (Test System: AMES SALMONELLA TYPHIMURIUM, Strain/Indicator: YG1019, Metabolic Activation: RAT LIVER S-9, AROCLOR, Method: PREINCUBATION): active; positive
